What was measured:
[1] = Solubility character of the agents; assay type: physicochemical
[2] = tested on: Wistar rats; assay: Reproductive function study, agents administered to male rats (Example 1); assay type: in vivo, rat; conditions: for Amount of gestation female rats / Fertility index / Gestation index / Amount of embryonate female rats: administered to male rats; for Amount of embryonate female rats: of 20 females housed with males; for Amount of babies delivered by 1 female / Post-implantation loss / Postnatal loss after 3 weeks / Pre-implantation loss / Weight of newborn baby rats / Dynamics of babies' body weight, 1st week / Dynamics of babies' body weight, 2nd week / Dynamics of babies' body weight, 3rd week / Dynamics of babies' body weight, 4th week / Craniocaudal size of fetus / Fetus weight / Amount of dead fetuses / Amount of implantation sites / Amount of resorptions / Amount of viable fetuses / Amount of yellow bodies: 10 weeks; for Craniocaudal size of fetus / Fetus weight: 20th day of gestation; for Amount of dead fetuses / Amount of implantation sites / Amount of resorptions / Amount of viable fetuses / Amount of yellow bodies: females sacrificed on 20th day of gestation
Experimental: 180 male and female Wistar rats were tested in the 110 experiments (initial body weight—180-200 g).
Group of 60 male rats was grouped into 6 subgroups each including 10 animals. Each group was treated as follows: group 1—vegetable oil, group 2—β-cyclodextrin, group 3—the agent of present invention, 0.35 mg/kg (the prototype agent), group 4—medication, 0.70 mg/kg (the prototype agent), group 5—the agent of present invention in a clathrate complex, 0.35 mg/kg, group 6—the agent of present invention in a clathrate complex, 0.70 mg/kg.
Male rats of the study subgroups were intragastrically given the above mentioned doses of the prototype agent and the agent of present invention in the clathrate complex form daily during 10 weeks (2-3 cycles of spermatozoa maturation). At the same time, animals of control groups were treated with corresponding amounts of placebo consisting of the vegetable oil or β-cyclodextrin. The placebo was chosen based on the fact that the prototype agent is an oil-soluble compound and the agent of present invention in the clathrate complex form is a water soluble compound. The drugs were administered once daily (at 10 a.m.).
After completion of dosing 6 groups of animals were formed: • the first (vegetable oil)—20 control female rats were housed together with 10 control male rats; the second (β-cyclodextrin)—20 control female rats were housed together with 10 control male rats; the third (the prototype agent, 0.35 mg/kg)—20 study female rats housed together with 10 control male rats; • the fourth (the prototype, 0.70 mg/kg)—20 control female rats were housed together with 10 study male rats; • the fifth (the agent of present invention in the clathrate complex form 0.35 mg/kg)—20 study female rats were housed together with 10 control male rats; • the sixth (the agent of present invention in the clathrate complex form 0.70 mg/kg)—20 control female rats were housed together with 10 study male rats.
During two estrous cycles, vaginal smear preparations were analyzed. Proestrus, estrus and metaestrum phases were detected. Presence of spermatozoa in vaginal smear preparations was registered as the first day of gestation. After 10 days, two subgroups of gestation female rats were formed from female rats in each of […] groups. Female rats of the first subgroups were sacrificed on 20th day of gestation. Amount of fetuses, resorption, implantation sites in the uterine cavity and yellow bodies of ovary were counted. Based on the obtained data, pre-implantation and post-implantation fetal death indexes were calculated according to the following equation: […]
where N1—amount of yellow bodies, N2—amount of implantation sites
where N1—amount of implantation sites N2—amount of viable fetuses.
Further, fertility index (ratio between the amount of female rats housed together with male rats to the amount of female rats having spermatozoa in vaginal smear preparations) and gestation index (ratio between the amount of female rats having spermatozoa in vaginal smear preparations to the amount of animals with full-term pregnancy):
where N1—amount of embryonate female rats N2—amount female rats housed together with male rats
where N1—amount of gestation female rats N2—amount of embryonate female rats Pathological changes (subcutaneous hematomas and edemas, developmental defects of skeletal system and eye globes) were registered.
The second groups of gestation female rats were allowed to parturiate under monitoring. Animals were weighed weekly and weight gain was registered. Parturition date, amount of babies in the brood and weight of babies were recorded. On 21st day after parturition, the survival rate and total and median weight of babies were measured.

[3] = tested on: Wistar rats; assay: Reproductive function study, agents administered to male rats and female rats separately (Example 2); assay type: in vivo, rat; conditions: for Amount of embryonate female rats: of 20 added females; for Amount of babies delivered by 1 female / Amount of dead fetuses / Amount of gestation female rats / Amount of implantation sites / Amount of resorptions / Amount of viable fetuses / Amount of yellow bodies / Carniocaudal size of fetus / Fertility index / Fetus body weight / Gestation index / Post-implantation loss / Postnatal loss after 3 weeks / Pre-implantation loss / Weight of newborn baby rats / Dynamics of infant body weight, 1st week / Dynamics of infant body weight, 2nd week / Dynamics of infant body weight, 3rd week / Dynamics of infant body weight, 4th week: 0.35 mg/kg
Experimental: 180 male and female Wistar rats were studied in the experiments (initial body weight—180-200 g). The prototype agent and the agent of present invention in the clathrate complex form were administered intragastrically in amount of 0.35 mg/kg. Female group of 120 animals was broken into two subgroups: control group (80 animals) and study group (40 animals). The prototype agent and the agent of present invention in the clathrate complex form were intragastrically administered to female rats of study group once a day during 2 weeks (3-4 estrous cycles). Male group of 60 animals was broken into two subgroups: control group (40 animals) and study group (20 animals). The prototype agent and the agent of present invention in the clathrate complex form were intragastrically administered to male rats of study group daily during 10 weeks (2-3 cycles of spermatozoa maturation). Corresponding amounts of placebo comprised of vegetable oil or β-cyclodextrin were administered to animals of the control group with the same intervals. The placebo was chosen based on the fact that the prototype agent is an oil-soluble compound and the agent of present invention in the clathrate complex form is a water soluble compound. The drugs were administered once daily (at 10 a.m.).
After administering the medication 6 groups of animals were formed: • the first (vegetable oil)—20 control female rats were housed together with 10 control male rats; • the second (β-cyclodextrin)—20 control female rats were housed together with 10 control male rats; • the third (the prototype, 0.35 mg/kg)—20 study female rats were housed together with 10 control male rats; • the fourth (the prototype, 0.35 mg/kg)—20 control female rats were housed together with 10 study male rats; • the fifth (the agent of present invention in the clathrate complex form 0.35 mg/kg)—20 study female rats were housed together with 10 control male rats; • the sixth (the agent of present invention in the clathrate complex form 0.35 mg/kg)—20 control female rats were housed together with 10 study male rats.
A pre- and post-implantation fetal death indexes, fertility index and gestation index were calculated according to equations cited in Example 1.

[4] = 0.35 mg/kg intragastrically daily during 10 weeks
[5] = 0.70 mg/kg intragastrically daily during 10 weeks
[6] = administered to female rats, 2 weeks
[7] = administered to male rats, 10 weeks

Structure (SMILES): c1ccc(C2C3=C(CCCC3)[Se]C3=C2CCCC3)cc1 [Prototype agent, 9-phenyl-sym-octahydroselenoxanthene]
- Solubility (oil-soluble / water soluble) [1]: oil-soluble
- Amount of gestation female rats [2, 4]: 13
- Fertility index [2, 4]: 80%
- Gestation index [2, 4]: 81%
- Amount of embryonate female rats [2, 4]: 16
- Amount of gestation female rats [2, 5]: 14
- Fertility index [2, 5]: 85%
- Gestation index [2, 5]: 82%
- Amount of embryonate female rats [2, 5]: 17
- Amount of babies delivered by 1 female ([2]; male rats 0.35 mg/kg): 9.2 ± 1.1
- Post-implantation loss ([2]; male rats 0.35 mg/kg): 5.3%
- Postnatal loss after 3 weeks ([2]; male rats 0.35 mg/kg): 2.8%
- Pre-implantation loss ([2]; male rats 0.35 mg/kg): 5.1%
- Weight of newborn baby rats ([2]; male rats 0.35 mg/kg): 5.7 ± 0.9 g
- Dynamics of babies' body weight, 1st week ([2]; male rats 0.35 mg/kg): 19.2 ± 1.1 g
- Dynamics of babies' body weight, 2nd week ([2]; male rats 0.35 mg/kg): 25.2 ± 1.6 g
- Dynamics of babies' body weight, 3rd week ([2]; male rats 0.35 mg/kg): 45.7 ± 1.2 g
- Dynamics of babies' body weight, 4th week ([2]; male rats 0.35 mg/kg): 60.4 ± 1.9 g
- Craniocaudal size of fetus ([2]; male rats 0.35 mg/kg): 33 ± 2 mm
- Fetus weight ([2]; male rats 0.35 mg/kg): 3.3 ± 0.2 g
- Amount of dead fetuses ([2]; male rats 0.35 mg/kg): 0
- Amount of implantation sites ([2]; male rats 0.35 mg/kg): 13.1 ± 1.0
- Amount of resorptions ([2]; male rats 0.35 mg/kg): 0.6 ± 0.2
- Amount of viable fetuses ([2]; male rats 0.35 mg/kg): 12.4 ± 0.8
- Amount of yellow bodies ([2]; male rats 0.35 mg/kg): 13.8 ± 1.2
- Amount of babies delivered by 1 female ([2]; male rats 0.70 mg/kg): 9.0 ± 1.2
- Post-implantation loss ([2]; male rats 0.70 mg/kg): 4.8%
- Postnatal loss after 3 weeks ([2]; male rats 0.70 mg/kg): 2.8%
- Pre-implantation loss ([2]; male rats 0.70 mg/kg): 5.3%
- Weight of newborn baby rats ([2]; male rats 0.70 mg/kg): 5.8 ± 1.0 g
- Dynamics of babies' body weight, 1st week ([2]; male rats 0.70 mg/kg): 19.1 ± 0.8 g
- Dynamics of babies' body weight, 2nd week ([2]; male rats 0.70 mg/kg): 25.3 ± 1.2 g
- Dynamics of babies' body weight, 3rd week ([2]; male rats 0.70 mg/kg): 44.7 ± 1.5 g
- Dynamics of babies' body weight, 4th week ([2]; male rats 0.70 mg/kg): 59.8 ± 2.4 g
- Craniocaudal size of fetus ([2]; male rats 0.70 mg/kg): 33 ± 1 mm
- Fetus weight ([2]; male rats 0.70 mg/kg): 3.3 ± 0.1 g
- Amount of dead fetuses ([2]; male rats 0.70 mg/kg): 0
- Amount of implantation sites ([2]; male rats 0.70 mg/kg): 12.5 ± 1.0
- Amount of resorptions ([2]; male rats 0.70 mg/kg): 0.5 ± 0.2
- Amount of viable fetuses ([2]; male rats 0.70 mg/kg): 11.9 ± 0.7
- Amount of yellow bodies ([2]; male rats 0.70 mg/kg): 13.2 ± 0.9
- Amount of embryonate female rats ([3]; administered to female rats, 0.35 mg/kg intragastrically once a day during 2 weeks): 16
- Amount of babies delivered by 1 female [3, 6]: 8.6 ± 0.9
- Amount of dead fetuses [3, 6]: 0
- Amount of gestation female rats [3, 6]: 14
- Amount of implantation sites [3, 6]: 9.9 ± 0.6
- Amount of resorptions [3, 6]: 0.4 ± 0.2
- Amount of viable fetuses [3, 6]: 9.2 ± 1.1
- Amount of yellow bodies [3, 6]: 10.7 ± 0.7
- Carniocaudal size of fetus [3, 6]: 35 ± 2 mm
- Fertility index [3, 6]: 80%
- Fetus body weight [3, 6]: 3.4 ± 0.2 g
- Gestation index [3, 6]: 88%
- Post-implantation loss [3, 6]: 7.1%
- Postnatal loss after 3 weeks [3, 6]: 2.5%
- Pre-implantation loss [3, 6]: 7.5%
- Weight of newborn baby rats [3, 6]: 6.2 ± 0.9 g
- Dynamics of infant body weight, 1st week [3, 6]: 18.8 ± 1.2 g
- Dynamics of infant body weight, 2nd week [3, 6]: 26.3 ± 1.5 g
- Dynamics of infant body weight, 3rd week [3, 6]: 47.4 ± 2.0 g
- Dynamics of infant body weight, 4th week [3, 6]: 61.5 ± 2.8 g
- Amount of embryonate female rats ([3]; administered to male rats, 0.35 mg/kg intragastrically daily during 10 weeks): 17
- Amount of babies delivered by 1 female [3, 7]: 8.7 ± 0.8
- Amount of dead fetuses [3, 7]: 0
- Amount of gestation female rats [3, 7]: 15
- Amount of implantation sites [3, 7]: 10.1 ± 1.1
- Amount of resorptions [3, 7]: 0.4 ± 0.2
- Amount of viable fetuses [3, 7]: 9.4 ± 1.0
- Amount of yellow bodies [3, 7]: 10.8 ± 0.8
- Carniocaudal size of fetus [3, 7]: 35 ± 1 mm
- Fertility index [3, 7]: 85%
- Fetus body weight [3, 7]: 3.5 ± 0.2 g
- Gestation index [3, 7]: 88%
- Post-implantation loss [3, 7]: 6.9%
- Postnatal loss after 3 weeks [3, 7]: 2.6%
- Pre-implantation loss [3, 7]: 6.5%
- Weight of newborn baby rats [3, 7]: 6.4 ± 1.2 g
- Dynamics of infant body weight, 1st week [3, 7]: 20.1 ± 0.9 g
- Dynamics of infant body weight, 2nd week [3, 7]: 27.2 ± 1.5 g
- Dynamics of infant body weight, 3rd week [3, 7]: 45.9 ± 1.9 g
- Dynamics of infant body weight, 4th week [3, 7]: 61.9 ± 2.6 g
